In patent publication US12209087B2, “AKT1 modulators” (Alterome Therapeutics, Inc., priority 2022, dated 2025):

target: T1, full length AKT E17K (Homo sapiens, UniProt P31749, E17K); test: NanoBRET Target Engagement (TE) Assay; format: cell-based; conditions: competitive displacement of tracer in cells, read-out: AKT1 E17K IC50
T1 construct: host or cells: HEK-293 (ATCC CRL-1573)
Outline: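 Compound and tracer incubated 2 h before luminescence at donor 450 nm and acceptor 600 nm, with extracellular signal inhibited. EC50 by sigmoidal variable-slope regression.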

T1 sequence (P31749 whole entry E17K): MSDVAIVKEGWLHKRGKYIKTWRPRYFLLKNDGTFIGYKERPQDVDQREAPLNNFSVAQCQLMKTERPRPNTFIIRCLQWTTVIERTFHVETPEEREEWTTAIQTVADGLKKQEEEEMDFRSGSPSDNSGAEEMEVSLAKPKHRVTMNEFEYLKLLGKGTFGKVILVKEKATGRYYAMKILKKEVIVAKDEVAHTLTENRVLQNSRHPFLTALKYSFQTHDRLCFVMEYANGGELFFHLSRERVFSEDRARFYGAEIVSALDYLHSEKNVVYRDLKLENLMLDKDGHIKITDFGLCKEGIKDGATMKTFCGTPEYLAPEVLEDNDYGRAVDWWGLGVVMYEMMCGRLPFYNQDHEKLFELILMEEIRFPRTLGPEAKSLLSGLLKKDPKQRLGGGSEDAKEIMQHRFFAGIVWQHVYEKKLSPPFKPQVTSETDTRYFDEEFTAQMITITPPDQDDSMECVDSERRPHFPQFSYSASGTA

Row | SMILES | IC50
1 | N#Cc1nccc(NC2CCN(Cc3ccc(-n4c(-c5cccnc5N)nc5ccc(-c6ccncc6C#N)nc54)cc3)CC2)n1 [Example 400, 4-((1-(4-(2-(2-Aminopyridin-3-yl)-5-(3-cyanopyridin-4-yl)-3H-imidazo[4,5-b]pyridin-3-yl)benzyl)piperidin-4-yl)amino)pyrimidine-2-carbonitrile] | < 15 nM
2 | N#Cc1nccc(N2CCN(Cc3ccc(-n4c(-c5cccnc5N)nc5ccc(-c6ccncc6C#N)nc54)cc3)CC2)n1 [Example 399, 4-(4-(4-(2-(2-Aminopyridin-3-yl)-5-(3-cyanopyridin-4-yl)-3H-imidazo[4,5-b]pyridin-3-yl)benzyl)piperazin-1-yl)pyrimidine-2-carbonitrile] | 15 to 60 nM
3 | N#Cc1nccc(NC2CCN(Cc3ccc(-n4c(-c5cccnc5N)nc5ccc(N6CCOC6=O)nc54)cc3)CC2)n1 [Example 403, 4-((1-(4-(2-(2-Aminopyridin-3-yl)-5-(2-oxooxazolidin-3-yl)-3H-imidazo[4,5-b]pyridin-3-yl)benzyl)piperidin-4-yl)amino)pyrimidine-2-carbonitrile] | < 15 nM
4 | N#Cc1cc(NC2CCN(Cc3ccc(-n4c(-c5cccnc5N)nc5ccc(-c6cccc(Cl)c6)nc54)cc3)CC2)ncn1 [Example 373, 6-((1-(4-(2-(2-Aminopyridin-3-yl)-5-(3-chlorophenyl)-3H-imidazo[4,5-b]pyridin-3-yl)benzyl)piperidin-4-yl)amino)pyrimidine-4-carbonitrile] | 15 to 60 nM
5 | N#Cc1nccc(NC2CCN(Cc3ccc(-n4c(-c5cccnc5N)nc5nccnc54)cc3)CC2)n1 [Example 413, 4-((1-(4-(2-(2-aminopyridin-3-yl)-1H-imidazo[4,5-b]pyrazin-1-yl)benzyl)piperidin-4-yl)amino)pyrimidine-2-carbonitrile] | 15 to 60 nM
6 | N#Cc1ccc(-c2ccc3nc(-c4cccnc4N)n(-c4ccc(CN5CCC(Nc6ccnc(C#N)n6)CC5)cc4)c3n2)cn1 [Example 419, 4-((1-(4-(2-(2-Aminopyridin-3-yl)-5-(6-cyanopyridin-3-yl)-3H-imidazo[4,5-b]pyridin-3-yl)benzyl)piperidin-4-yl)amino)pyrimidine-2-carbonitrile] | < 15 nM
7 | N#Cc1nccc(NC2CCN(Cc3ccc(-n4c(-c5cccnc5N)nc5ccc(Br)nc54)cc3)CC2)n1 [Example 485, 4-((1-(4-(2-(2-Aminopyridin-3-yl)-5-bromo-3H-imidazo[4,5-b]pyridin-3-yl)benzyl)piperidin-4-yl)amino)pyrimidine-2-carbonitrile] | < 15 nM
8 | Cc1nocc1-c1ccc2nc(-c3cccnc3N)n(-c3ccc(CN4CCC(Nc5ccnc(C#N)n5)CC4)cc3)c2n1 [Example 464, 4-((1-(4-(2-(2-Aminopyridin-3-yl)-5-(3-methylisoxazol-4-yl)-3H-imidazo[4,5-b]pyridin-3-yl)benzyl)piperidin-4-yl)amino)pyrimidine-2-carbonitrile] | < 15 nM

Second part, the molecule after the results:

Row | IC50 | SMILES
9 | < 15 nM | N#Cc1nccc(NC2CCN(Cc3ccc(-n4c(-c5cccnc5N)nc5ccc(-c6ccc(C(F)F)nc6)nc54)cc3)CC2)n1 [Example 645, 4-((1-(4-(2-(2-Aminopyridin-3-yl)-5-(6-(difluoromethyl)pyridin-3-yl)-3H-imidazo[4,5-b]pyridin-3-yl)benzyl)piperidin-4-yl)amino)pyrimidine-2-carbonitrile]
10 | < 15 nM | [2H]c1nn(C)nc1-c1ccc2nc(-c3nccnc3N)n(-c3ccc(CN4CCC(Nc5ccnc(C#N)n5)CC4)cc3)c2n1 [Example 634, 4-((1-(4-(2-(3-Aminopyrazin-2-yl)-5-(2-methyl-2H-1,2,3-triazol-4-yl-5-d)-3H-imidazo[4,5-b]pyridin-3-yl)benzyl)piperidin-4-yl)amino)pyrimidine-2-carbonitrile]
11 | < 15 nM | CCOc1ccc(-c2ccc3nc(-c4cccnc4N)n(-c4ccc(CN5CCC(Nc6ccnc(C#N)n6)CC5)cc4)c3n2)nc1 [Example 560, 4-((1-(4-(2-(2-Aminopyridin-3-yl)-5-(5-ethoxypyridin-2-yl)-3H-imidazo[4,5-b]pyridin-3-yl)benzyl)piperidin-4-yl)amino)pyrimidine-2-carbonitrile]
12 | < 15 nM | N#Cc1nccc(NC2CCN(Cc3ccc(-n4c(-c5cccnc5N)nc5ccc(-c6cnn(CF)n6)nc54)cc3)CC2)n1 [Example 618, 4-((1-(4-(2-(2-Aminopyridin-3-yl)-5-(2-(fluoromethyl)-2H-1,2,3-triazol-4-yl)-3H-imidazo[4,5-b]pyridin-3-yl)benzyl)piperidin-4-yl)amino)pyrimidine-2-carbonitrile]
13 | < 15 nM | Cc1nn(C)cc1-c1ccc2nc(-c3cccnc3N)n(-c3ccc(CN4CCC(Nc5ccnc(C#N)n5)CC4)cc3)c2n1 [Example 539, 4-((1-(4-(2-(2-Aminopyridin-3-yl)-5-(1,3-dimethyl-1H-pyrazol-4-yl)-3H-imidazo[4,5-b]pyridin-3-yl)benzyl)piperidin-4-yl)amino)pyrimidine-2-carbonitrile]
14 | < 15 nM | N#Cc1nccc(NC2CCN(Cc3ccc(-n4c(-c5cccnc5N)nc5ccc(-c6cnc(F)cn6)nc54)cc3)CC2)n1 [Example 605, 4-((1-(4-(2-(2-Aminopyridin-3-yl)-5-(5-fluoropyrazin-2-yl)-3H-imidazo[4,5-b]pyridin-3-yl)benzyl)piperidin-4-yl)amino)pyrimidine-2-carbonitrile]
15 | < 15 nM | Cn1cncc1-c1ccc2nc(-c3cccnc3N)n(-c3ccc(CN4CCC(Nc5ccnc(C#N)n5)CC4)cc3)c2n1 [Example 546, 4-((1-(4-(2-(2-Aminopyridin-3-yl)-5-(1-methyl-1H-imidazol-5-yl)-3H-imidazo[4,5-b]pyridin-3-yl)benzyl)piperidin-4-yl)amino)pyrimidine-2-carbonitrile]
16 | < 15 nM | N#Cc1ccc2nc(-c3cccnc3N)n(-c3ccc(CN4CCC(Nc5ccnc(C#N)n5)CC4)cc3)c2c1 [Example 500, 2-(2-Aminopyridin-3-yl)-1-(4-((4-((2-cyanopyrimidin-4-yl)amino)piperidin-1-yl)methyl)phenyl)-1H-benzo[d]imidazole-6-carbonitrile]

same assay, conditions: competitive tracer displacement in living cells, read-out: AKT1 E17K IC50

Row | IC50 | SMILES
17 | 15 to 60 nM | N#Cc1ncnc(NC2CN(Cc3ccc(-n4c(-c5cccnc5N)nc5ccc(-c6ccccc6)nc54)cc3)C2)n1 [Example 300, 4-((1-(4-(2-(2-Aminopyridin-3-yl)-5-phenyl-3H-imidazo[4,5-b]pyridin-3-yl)benzyl)azetidin-3-yl)amino)-1,3,5-triazine-2-carbonitrile]
18 | < 15 nM | N#Cc1nccc(NC2CCN(Cc3ccc(-n4c(-c5cccnc5N)nc5ccc(-c6ccccc6Cl)nc54)cc3)CC2)n1 [Example 305, 4-((1-(4-(2-(2-Aminopyridin-3-yl)-5-(2-chlorophenyl)-3H-imidazo[4,5-b]pyridin-3-yl)benzyl)piperidin-4-yl)amino)pyrimidine-2-carbonitrile]
19 | 15 to 60 nM | N#Cc1cncnc1C(=O)NC1CCN(Cc2ccc(-n3c(-c4cccnc4N)nc4ccc(-c5ccccc5)nc43)cc2)CC1 [Example 73, N-(1-(4-(2-(2-Aminopyridin-3-yl)-5-phenyl-3H-imidazo[4,5-b]pyridin-3-yl)benzyl)piperidin-4-yl)-5-cyanopyrimidine-4-carboxamide]
20 | 600 to 10000 nM | N#Cc1cccc(OC2CCN(Cc3ccc(-n4c(-c5cccnc5N)nc5cc(-c6ccccc6)cnc54)cc3)CC2)n1 [Example 10, 6-((1-(4-(2-(2-Aminopyridin-3-yl)-6-phenyl-3H-imidazo[4,5-b]pyridin-3-yl)benzyl)piperidin-4-yl)oxy)picolinonitrile]
21 | 60 to 600 nM | N#Cc1cncc(NC2CCN(Cc3ccc(-n4c(-c5cccnc5N)nc5ccc(-c6ccccc6)nc54)cc3)CC2)c1 [Example 93, 5-((1-(4-(2-(2-Aminopyridin-3-yl)-5-phenyl-3H-imidazo[4,5-b]pyridin-3-yl)benzyl)piperidin-4-yl)amino)nicotinonitrile]
22 | < 15 nM | N#Cc1ncnc(N2CC3(CCN(Cc4ccc(-n5c(-c6cccnc6N)nc6ccc(-c7ccccc7)nc65)cc4)C3)C2)n1 [Example 301, 4-(6-(4-(2-(2-Aminopyridin-3-yl)-5-phenyl-3H-imidazo[4,5-b]pyridin-3-yl)benzyl)-2,6-diazaspiro[3.4]octan-2-yl)-1,3,5-triazine-2-carbonitrile]
23 | 600 to 10000 nM | N#Cc1cncc(NCc2ccc(-n3c(-c4cccnc4N)nc4cccnc43)cc2)c1 [Example 131, 5-((4-(2-(2-Aminopyridin-3-yl)-3H-imidazo[4,5-b]pyridin-3-yl)benzyl)amino)nicotinonitrile]
24 | 60 to 600 nM | C[C@H]1CN(Cc2ccc(-n3c(-c4cccnc4N)nc4ccc(-c5ccccc5)nc43)cc2)C[C@H](C)N1c1cc(C#N)ncn1 [Example 194, 6-((2S,6S)-4-(4-(2-(2-Aminopyridin-3-yl)-5-phenyl-3H-imidazo[4,5-b]pyridin-3-yl)benzyl)-2,6-dimethylpiperazin-1-yl)pyrimidine-4-carbonitrile]

Row | SMILES | IC50
25 | N#Cc1nccc(N2C3CCC2CN(Cc2ccc(-n4c(-c5cccnc5N)nc5ccc(-c6ccccc6)nc54)cc2)C3)n1 [Example 203, 4-(3-(4-(2-(2-Aminopyridin-3-yl)-5-phenyl-3H-imidazo[4,5-b]pyridin-3-yl)benzyl)-3,8-diazabicyclo[3.2.1]octan-8-yl)pyrimidine-2-carbonitrile] | 60 to 600 nM
26 | N#Cc1nccc(N2CC3CCC(C2)N3Cc2ccc(-n3c(-c4cccnc4N)nc4ccc(-c5ccccc5)nc43)cc2)n1 [Example 211, 4-(8-(4-(2-(2-Aminopyridin-3-yl)-5-phenyl-3H-imidazo[4,5-b]pyridin-3-yl)benzyl)-3,8-diazabicyclo[3.2.1]octan-3-yl)pyrimidine-2-carbonitrile] | < 15 nM
27 | N#Cc1cc(N2CC3CCC(C2)N3Cc2ccc(-n3c(-c4cccnc4N)nc4ccc(-c5ccccc5)nc43)cc2)ncn1 [Example 213, 6-(8-(4-(2-(2-Aminopyridin-3-yl)-5-phenyl-3H-imidazo[4,5-b]pyridin-3-yl)benzyl)-3,8-diazabicyclo[3.2.1]octan-3-yl)pyrimidine-4-carbonitrile] | 15 to 60 nM
